Laboratory results reported in article PMC9822194, “Chemoselective Synthesis of Mannich Adducts from 1,4-Naphthoquinones and Profile as Autophagic Inducers in Oral Squamous Cell Carcinoma” (Molecules, 2022).
Where two headings read alike, the source gives them in different places.

Legend:
SCC-25 cells = assay: MTT cell viability assay, SCC25; assay type: cell-based, Human; conditions: read-out: SCC25 IC50
Description: (§1) Cells and reagents. Human SCC-4, SCC-9 and SCC-25 cells, derived from a human oral tongue SCC were obtained from the ATCC (CRL-1624; CRL-1629 and CRL-1628, respectively) and maintained at 1:1 DMEM/F12 (Dulbecco’s modified Eagle medium and Ham’s F12 medium; Gibco, Thermo Fisher, Waltham, MA, USA) supplemented with 10% (v/v) FBS (fetal bovine serum; Invitrogen, Thermo Fisher, Waltham, MA, USA) and 400 ng/mL hydrocortisone (Sigma-Aldrich Co., St. Louis, MO, USA). Primary normal human gingival fibroblasts were obtained from the ATCC (PCS-201-018), maintained in DMEM supplemented with 10% (v/v) FBS, and used in a maximum of 6 passages. Cells were grown in a humidified environment containing 5% CO2 at 37 °C. […] Carboplatin in water (Fauldcarbo®; Libbs Farmacêutica, São Paulo, SP, Brazil) was used as a standard anticancer compound.
(§2) Cell viability assay (cytotoxicity) and stability assay. To assess cell viability, cells were grown in triplicate in 96-well plates (5 × 10^3 cells/well) until confluence when treated with the different compounds as in Machado et al.. Briefly, DMSO in the same concentrations was used as a 100% cell viability control. After 48 h, cells were incubated with 5 mg/mL MTT reagent (3-(4,5-dimethyl-2-thiazolyl)-2,5-diphenyl-2H-tetrazolium bromide) (Sigma-Aldrich Co., St. Louis, MO, USA) for 3.5 h. Formazan crystals were dissolved in MTT solvent (DMSO/methanol 1:1 v/v) and the absorbance at 560 nm was evaluated using an EPOCH microplate spectrophotometer (BioTek Instruments, Winooski, VT, USA) with background absorbance at 670 nm subtracted. Each of the eighteen compounds was tested at six or seven different concentrations, ranging from 0.3 µM to 200 µM in cancer cell lines (SCC-4, SCC-9 and SCC-25) and 0.4 µM to 300 µM in normal primary human gingival fibroblast.
(§3) Statistical analysis, IC50 calculation. IC50 values for MTT assays were obtained by non-linear regression using the GraphPad Prism 5.0 software (GraphPad, San Diego, CA, USA) from at least three independent experiments. Data are presented as means ± SD. A dose-response (inhibitor) vs response curve using the least squares method was used to determine the IC50, SD and R2 of the data. The selectivity index was calculated as S.I. = IC50 of the compound in normal oral fibroblast cells/IC50 of the same compound for each oral cancer cell line (SCC-4, SCC-9 and SCC-25) and the mean was calculated when indicated.

[1] = tested on: OSCC cell lines (SCC 4, SCC-9 and SCC-25); assay: MTT assay, mean over three OSCC cell lines and average selectivity index; assay type: cell-based, Human; conditions: for Average S.I.: average selectivity index over SCC-4, SCC-9, SCC-25 vs normal fibroblasts; for IC50: mean of SCC9, SCC25, SCC4, read-out: Oral Tumor Cells Mean IC50
Description: as §2, §3

SCC-4 cells = assay: MTT cell viability assay, SCC4; assay type: cell-based, Human; conditions: read-out: SCC4 IC50
Description: as §1, §2, §3

[2] = tested on: normal human gingival fibroblasts; assay: MTT cell viability assay, normal fibroblasts; assay type: cell-based; conditions: 48 h
Description: as §1, §2, §3

SCC-9 (OSCC cells) = assay: MTT cell viability assay (cytotoxicity), SCC9; assay type: cell-based, Human; conditions: for Selective Index (S.I.): IC50 normal oral fibroblasts/IC50 SCC-9
Description: as §1, §2, §3

SCC9 cells [3] = assay: Clonogenic assay, SCC9; assay type: cell-based, Human; conditions: 2 × IC50, 5 days
Description: (§4) Clonogenic assay. The SCC9 strain and primary human fibroblasts were grown in duplicates in 24-well plates (5 × 10^4 cells/well) and incubated for 24 h. […] DMSO was used at the same concentrations as a control for 100% of viability. After 5 days of incubation, the culture medium was removed and the cells were fixed with absolute ethanol (500 µL) for 10 min, then stained with crystal 0.05% violet (Sigma Aldrich) in 20% ethanol (500 µL) for 10 min and washed with distilled water. The plates were scanned to quantify the inhibition of the formation of colonies. Then, crystal violet was solubilized in 33% acetic acid and added to the 96-well plate. Finally, the absorbance was read in a spectrophotometer (EPOCH, BioTek Instruments, Winooski, VT, USA) (595 nm).

SCC9 cells [4] = assay: Stability test (pre-incubation at 37 °C, then MTT on SCC9); assay type: cell-based, Human; conditions: 2 × IC50 pre-incubated 0-48 h at 37 °C, then SCC9 48 h
Description: After the desired treatment time was reached, the medium containing the compound was replaced with untreated culture medium and the MTT assay was performed at the end of both experiments.

[5] = tested on: primary human fibroblasts; assay: Clonogenic assay, primary human fibroblasts; assay type: cell-based; conditions: 2 × IC50, 5 days, normal fibroblasts
Description: as §4

[6] = MTT, Table 1, read-out: Primary Gengival Fibroblast IC50
[7] = MTT, 48 h, Table 1, read-out: SCC9—Oral Cancer IC50
[8] = Homo sapiens, Fibroblast, MTT, Table 1, read-out: Primary Gengival Fibroblast IC50
[9] = Homo sapiens, SCC-9, MTT, 48 h, Table 1, read-out: SCC9—Oral Cancer IC50

Row | Compound | IC50 [2, 6] [µM] | Selective Index (S.I.) (SCC-9 (OSCC cells)) | IC50 (SCC-9 (OSCC cells); [7]) [µM] | IC50 [2, 8] [µM] | IC50 (SCC-9 (OSCC cells); [9]) [µM] | further results
1 | Methyl benzyl((3-methyl-phenyl)(3-((methoxycarbonyl)oxy)-1,4-dioxo-1,4-dihydronaphthalen-2-yl)methyl)carbamate [6h] | 53.7 | 4.83 | 11.1 | – | – | IC50 (SCC-25 cells; MTT, 48 h): 56.6 µM; Average S.I. [1]: 1.29; IC50 (SCC-4 cells; MTT, 48 h): 98.4 µM; IC50 ([2]; MTT, Table 2, read-out: Primary Gingival Fibroblast IC50): 53.7 µM
2 | COC(=O)N(Cc1ccccc1)C(C1=C(O)C(=O)c2ccccc2C1=O)c1ccc(F)cc1 (stereo not shown) [6e] | – | 2.68 | – | 197 | 73.2 | –
3 | N.N.O=C([O-])C1(C(=O)[O-])CCC1.[Pt+2] [Carboplatin] | 193 | 0.85 | 223 | – | – | IC50 (SCC-25 cells; MTT, 48 h): 264 µM; Average S.I. [1]: 0.85; Average S.I. ([1]; listed as carboplatin): 0.847; IC50 [1]: 228 µM; IC50 (SCC-4 cells; MTT, 48 h): 195 µM; Cytotoxicity in clonogenic assay (colony formation) (SCC9 cells [3]): high cytotoxicity; Stability at 37 °C (retained cytotoxicity) (SCC9 cells [4]): stable even after 48 h; Cells viable and able to form colonies [5]: less than 50%
4 | Methyl benzyl((4-nitrophenyl)(3-((methoxycarbonyl)oxy)-1,4-dioxo-1,4-dihydronaphthalen-2-yl)methyl)carbamate [6c] | 148 | 2.63 | 56.1 | – | – | –
5 | COC(=O)OC1=C(C(c2ccc(Br)cc2)N(Cc2ccccc2)C(=O)OC)C(=O)c2ccccc2C1=O (stereo not shown) [5d, Methylbenzyl((4-bromophenyl)(3-((methoxycarbonyl)oxy)-1,4-dioxo-1,4-dihydronaphthalen-2-yl)methyl)carbamate] | – | 1.78 | – | 69.1 | 38.8 | –
6 | COc1cccc2c1C(=O)c1c(O)c3c(c(O)c1C2=O)C[C@@](O)(C(=O)CO)C[C@@H]3O[C@H]1C[C@H](N)[C@H](O)[C@H](C)O1 [Doxorubicin] | – | 2.57 | – | 18.7 | 7.2 | IC50 (SCC-25 cells; Homo sapiens, SCC-25, MTT, 48 h): 1.12 µM; IC50 ([1]; Homo sapiens): 4.73 µM; Average S.I. [1]: 3.94; IC50 (SCC-4 cells; Homo sapiens, SCC-4, MTT, 48 h): 5.87 µM; Stability at 37 °C (retained cytotoxicity) (SCC9 cells [4]): stable even after 48 h
7 | Methylbenzyl((3-((methoxycarbonyl)oxy)-1,4-dioxo-1,4-dihydronaphthalen-2-yl)(m-tolyl) methyl)carbamate [5h] | 49.1 | 1.97 | 24.9 | – | – | –
8 | COC(=O)OC1=C(C(c2ccc(C)cc2)N(Cc2ccccc2)C(=O)OC)C(=O)c2ccccc2C1=O (stereo not shown) [5f, Methylbenzyl((3-((methoxycarbonyl)oxy)-1,4-dioxo-1,4-dihydronaphthalen-2-yl)(p-tolyl)methyl)carbamate] | – | 2.05 | – | 45.7 | 22.2 | –
9 | Methyl benzyl((3-chloro-phenyl)(3-((methoxycarbonyl)oxy)-1,4-dioxo-1,4-dihydronaphthalen-2-yl)methyl)carbamate [6i] | 73.5 | 1.03 | 70.7 | – | – | –
10 | Methyl benzyl((phenyl)(3-((methoxycarbonyl)oxy)-1,4-dioxo-1,4-dihydronaphthalen-2-yl)methyl)carbamate [6b] | 230 | 2.79 | 82.2 | – | – | –
11 | COC(=O)OC1=C(C(c2ccc(F)cc2)N(Cc2ccccc2)C(=O)OC)C(=O)c2ccccc2C1=O (stereo not shown) [5e, Methylbenzyl((4-fluorophenyl)(3-((methoxycarbonyl)oxy)-1,4-dioxo-1,4-dihydronaphthalen-2-yl)methyl)carbamate] | – | 1.81 | – | 40.1 | 22.1 | –
12 | COC(=O)OC1=C(C(c2ccc(OC)cc2)N(Cc2ccccc2)C(=O)OC)C(=O)c2ccccc2C1=O (stereo not shown) [5g, Methylbenzyl((3-((methoxycarbonyl)oxy)-1,4-dioxo-1,4-dihydronaphthalen-2-yl)(4-methoxyphenyl)methyl)carbamate] | – | 1.68 | – | 35.5 | 21 | –
13 | CC(C)=CCC1=C(O)C(=O)c2ccccc2C1=O [Lapachol, reference compound] | – | 2.41 | – | – | – | IC50 (SCC-25 cells; Homo sapiens, SCC-25, 48 h): 85.9 µM; IC50 ([1]; Homo sapiens): 61.1 µM; Average S.I. [1]: 1.66; IC50 (SCC-4 cells; Homo sapiens, SCC-4, 48 h): 55.3 µM; IC50 ([2]; Homo sapiens, Fibroblast, read-out: Primary Gengival Fibroblast IC50): 102 µM; IC50 (SCC-9 (OSCC cells); Homo sapiens, SCC-9, 48 h, read-out: SCC9 IC50): 42.1 µM; IC50 (SCC-9 (OSCC cells); Homo sapiens, SCC-9, 48 h, read-out: SCC9—Oral Cancer IC50): 42.1 µM
14 | COC(=O)OC1=C(C(c2ccc([N+](=O)[O-])cc2)N(Cc2ccccc2)C(=O)OC)C(=O)c2ccccc2C1=O (stereo not shown) [5c, Methylbenzyl((3-((methoxycarbonyl)oxy)-1,4-dioxo-1,4-dihydronaphthalen-2-yl)(4-nitrophenyl)methyl)carbamate] | – | 1.54 | – | 38.3 | 24.8 | –
15 | COC(=O)OC1=C(C(c2cccc(Cl)c2)N(Cc2ccccc2)C(=O)OC)C(=O)c2ccccc2C1=O (stereo not shown) [5i, Methylbenzyl((3-chlorophenyl)(3-((methoxycarbonyl)oxy)-1,4-dioxo-1,4-dihydronaphthalen-2-yl)methyl)carbamate] | – | 1.77 | – | 42.6 | 23.9 | –
16 | COC(=O)OC1=C(C(c2ccccc2)N(Cc2ccccc2)C(=O)OC)C(=O)c2ccccc2C1=O (stereo not shown) [5b, Methylbenzyl((3-((methoxycarbonyl)oxy)-1,4-dioxo-1,4-dihydronaphthalen-2yl)(phenyl)methyl)carbamate] | – | 1.95 | – | 55.7 | 28.5 | –
17 | Methyl benzyl((4-chlorophenyl)(3-((methoxycarbonyl)oxy)-1,4-dioxo-1,4-dihydronaphthalen-2-yl)methyl)carbamate [5a] | 37.5 | 1.61 | 23.2 | – | – | –
